Experiments:
HBV DNA replication = test: Inhibition experiment on HBV virus replication (HepG 2,2,15 cells, supernatant HBV DNA by qPCR); format: cell-based; conditions: Hepatitis B virus, HepG2.2.15, 10 days treatment, supernatant HBV DNA on day 11
Excerpt: (§1) The chromosomal integration of HepG2,2,15 cells (SELLS, PNAS, 1987 and SELLS, JV, 1988) has a complete HBV genome and stably expresses viral RNA and viral proteins. HepG2,2,15 cells are capable of secreting mature hepatitis B virus particles and HBsAg into the culture medium. Virus particles DNA and HBsAg secreted by HepG 2,2,15 cells can be quantified by qPCR and ELISA, and the effects of compounds on viral replication and HBsAg secretion can be detected.
(§2) HepG 2,2,15 cells were inoculated with 8,000 per cell to 96-well cell culture plates in duplicate, and were cultured for 3 days until the cells grew to full-hole. Cells were treated with 4-fold serial dilutions of compounds for 10 days, and were given once every other day. The final concentration of DMSO in all pores was 0.5% and DMSO was used as a drug-free control. The supernatant was collected for quantitative detection of HBV DNA on day 11.
Viral genomic DNA was detected by qPCR method, and HBV primers were as follows: […]
The SYBR Premix Ex Taq D-Takara DRR081S kit was used, and 1 μL of cell culture supernatant was used as a template. A standard curve was made using a plasmid containing the HBV genome, and the viral copy number was calculated using the standard curve. Concentration-virus copy number was processed using Graphpad Prism 5 software, and IC50 of compounds inhibiting virus replication was calculated by four-parameter nonlinear regression model.

HBsAg secretion = test: Inhibition experiment on HBsAg secretion (HepG 2,2,15 cells, ELISA); format: cell-based; conditions: Hepatitis B virus, HepG2.2.15, read-out: HBsAg IC50
Excerpt: as §1
as §2, with “HBsAg” for “HBV DNA”
The level of HBsAg secreted by the cells after treatment of the compound was detected by ELISA method, and the method used a hepatitis B surface antigen diagnostic kit (Shanghai Kehua Biotech Co., Ltd. S10910113). 25 μL of the supernatant to be assayed (PBS was diluted to 75 μL) was added to per well in the ELISA plate, and the kit positive control and negative control were set. The ELIS A plate was blocked with a cover paper and incubated at 37° C. for 60 minutes. The ELISA plate was taken out, and the cover paper was teared off, and 50 μL of enzyme conjugate was added to each well. The ELISA plate was oscillated on the shaker for 10 seconds, blocked with a cover paper and incubated at 37° C. for 30 minutes. The ELISA plate was taken out, the cover paper was teared off, and the ELISA plate was washed 5 times: each time the liquid in the hole was discarded, and the washing liquid was filled into the holes, left to stand for 60 seconds, dried, and the liquid residue was patted to dry on the absorbent paper. A freshly prepared mixture of Developer A and Developer B was added to all wells immediately after washing: 100 μL per well. The ELISA plate was oscillated on the shaker for 10 seconds, blocked with a cover paper and incubated at 37° C. for 30 minutes. 50 μL of stop solution was added to all wells. Absorbance was read on the Envision plate reader at a wavelength of 450 nm.
Concentration-HBsAg OD450 was processed using Graphpad Prism 5 software, and IC50 of compounds inhibiting against HBsAg secretion was calculated by four-parameter nonlinear regression model.

Row | Structure (SMILES) | IC50 (HBV DNA replication) [nM] | IC50 (HBsAg secretion) [nM]
1 | CC(C)C1Cc2cc(-c3ccco3)c3c(c2-c2cc(=O)c(C(=O)O)cn21)CCO3 (centres unmarked) [Example 1, 4-(Furan-2-yl)-7-isopropyl-11-oxo-2,6,7,11-tetrahydro-1H-furo[2,3-h]pyrido[2,1-a]isoquinoline-10-carboxylic Acid] | 2.36 | 4.21
2 | CC(C)[C@@H]1Cc2cc(OCCC3CC3)c3c(c2-c2cc(=O)c(C(=O)O)cn21)CCO3 [Example 3A, (S)-4-(2-Cyclopropylethoxy)-7-isopropyl-11-oxo-2,6,7,11-tetrahydro-1H-furo [2,3-h]pyrido[2,1-a]isoquinoline-10-carboxylic Acid] | – | 0.76
3 | CC(C)C1Cc2cc(OCCOC3CC3)c3c(c2-c2cc(=O)c(C(=O)O)cn21)CCO3 (centres unmarked) [Example 4, 4-(2-Cyclopropoxyethoxy)-7-isopropyl-11-oxo-2,6,7,11-tetrahydro-1H-furo [2,3-h]pyrido[2,1-a]isoquinoline-10-carboxylic Acid] | 3.84 | –
4 | CC(C)C1Cc2cc(OCC3CCOCC3)c3c(c2-c2cc(=O)c(C(=O)O)cn21)CCO3 (centres unmarked) [Example 5, 7-Isopropyl-11-oxo-4-((tetrahydro-2H-pyran-4-yl)methoxy)-2,6,7,11-tetrahydro-1H-furo[2,3-h]pyrido[2,1-a]isoquinoline-10-carboxylic Acid] | 3.4 | 2.35
5 | CC(C)C1Cc2cc(OCCc3ccccc3)c3c(c2-c2cc(=O)c(C(=O)O)cn21)CCO3 (centres unmarked) [Example 6, 7-Isopropyl-11-oxo-4-phenylethoxy-2,6,7,11-tetrahydro-1H-furo[2,3-h]pyrido [2,1-a]isoquinoline-10-carboxylic Acid] | 0.86 | 1.92
6 | CC(C)C1Cc2cc(OCCC(F)(F)F)c3c(c2-c2cc(=O)c(C(=O)O)cn21)CCO3 (centres unmarked) [Example 7, 7-Isopropyl-11-oxo-4-(3,3,3-trifluoropropoxy)-2,6,7,11-tetrahydro-1H-furo [2,3-h]pyrido[2,1-a]isoquinoline-10-carboxylic Acid] | 1.87 | –
7 | CC(C)C1Cc2cc(-c3nccs3)c3c(c2-c2cc(=O)c(C(=O)O)cn21)CCO3 (centres unmarked) [Example 8, 7-isopropyl-11-oxo-4-(thiazol-2-yl)-2,6,7,11-tetrahydro-1H-furo[2,3-h]pyrido [2,1-a]isoquinoline-10-carboxylic Acid] | 0.52 | 1.63
8 | CC(C)C1Cc2cc(-c3cnn(C(F)F)c3)c3c(c2-c2cc(=O)c(C(=O)O)cn21)CCO3 (centres unmarked) [Example 10, 4-(l (Difluoromethyl)-1H-pyrazol-4-yl)-7-isopropyl-11-oxo-2,6,7,11-tetrahydro-1H-furo[2,3-h]pyrido[2,1-a]isoquinoline-10-carboxylic Acid] | 0.98 | 2.34
9 | CC(C)[C@@H]1Cc2cc(-c3cnn(C(F)F)c3)c3c(c2-c2cc(=O)c(C(=O)O)cn21)CCO3 [Example 10A, 4-(1-(Difluoromethyl)-1H-pyrazol-4-yl)-7-isopropyl-11-oxo-2,6,7,11-tetrahydro-1H-furo[2,3-h]pyrido[2,1-a]isoquinoline-10-carboxylic Acid] | – | 0.54
10 | CC(C)C1Cc2cc(-c3cccs3)c3c(c2-c2cc(=O)c(C(=O)O)cn21)CCO3 (centres unmarked) [Example 11, 7-Isopropyl-11-oxo-4-(thiophen-2-yl)-2,6,7,11-tetrahydro-1H-furo[2,3-h]pyrido[2,1-a]isoquinoline-10-carboxylic Acid] | 0.78 | 0.92
11 | COCCCOc1cc2c(c3c1OCC3)-c1cc(=O)c(C(=O)O)cn1N1C2CCC1(C)C (centres unmarked) [Example 12, 5-(3-Methoxypropoxy)-1,1-dimethyl-10-oxo-2,3,3a,7,8,10-hexahydro-1H-furo [3,2-f]pyrido[1,2-c]pyrrolo[2,1-a]phthalazine-11-carboxylic Acid] | < 0.24 | 0.81
12 | CC(C)n1cc(-c2cc3c(c4c2OCC4)-c2cc(=O)c(C(=O)O)cn2N2C3CCC2(C)C)cn1 (centres unmarked) [Example 14, 5-(1-Isopropyl-1H-pyrazol-4-yl)-1,1-dimethyl-10-oxo-2,3,3a,7,8,10-hexahydro-1H-furo[3,2-f]pyrido[1,2-c]pyrrolo[2,1-a]phthalazine-11-carboxylic Acid] | < 0.24 | 0.38
13 | COCCCOc1cc2c(c3c1OCC3)-c1cc(=O)c(C(=O)O)cn1N(C(C)C)C2 [Example 16, 7-Isopropyl-4-(3-methoxypropoxy)-11-oxo-2,6,7,11-tetrahydro-1H-furo[2,3-h]pyrido[2,1-a]phthalazine-10-carboxylic Acid] | 2.49 | –
14 | CC(C)CCOc1cc2c(c3c1OCC3)-c1cc(=O)c(C(=O)O)cn1C(C(C)C)C2 (centres unmarked) [Example 21, 4-(Isopentyloxy)-7-isopropyl-11-oxo-2,6,7,11-tetrahydro-1H-furo[2,3-h]pyrido [2,1-a]isoquinoline-10-carboxylic Acid] | – | 1.55
15 | CC(C)C1Cc2cc(OCC3CCCC3)c3c(c2-c2cc(=O)c(C(=O)O)cn21)CCO3 (centres unmarked) [Example 22, 4-(Cyclopentylmethoxy)-7-isopropyl-11-oxo-2,6,7,11-tetrahydro-1H-furo[2,3-h]pyrido[2,1-a]isoquinoline-10-carboxylic Acid] | 2.26 | –
16 | CC(C)C1Cc2cc(OCC3CC3)c3c(c2-c2cc(=O)c(C(=O)O)cn21)CCO3 (centres unmarked) [Example 23, 4-(Cyclopropylmethoxy)-7-isopropyl-11-oxo-2,6,7,11-tetrahydro-11-furo [2,3-h]pyrido[2,1-a]isoquinoline-10-carboxylic Acid] | 3.36 | 1.14
17 | CC(C)C1Cc2cc(-c3ccc(-c4ccccc4)cc3)c3c(c2-c2cc(=O)c(C(=O)O)cn21)CCO3 (centres unmarked) [Example 25, 4-([1,1′-Biphenyl]-4-yl)-7-isopropyl-11-oxo-2,6,7,11-tetrahydro-1H-furo[2,3-h]pyrido[2,1-a]isoquinoline-10-carboxylic Acid] | 0.72 | 1.4
18 | COc1ccc(-c2cc3c(c4c2OCC4)-c2cc(=O)c(C(=O)O)cn2C(C(C)C)C3)cc1 (centres unmarked) [Example 26, 7-Isopropyl-4-(4-methoxyphenyl)-11-oxo-2,6,7,11-tetrahydro-1H-furo[2,3-h]pyrido[2,1-a]isoquinoline-10-carboxylic Acid] | 1.09 | 1.33
19 | COc1cccc(-c2cc3c(c4c2OCC4)-c2cc(=O)c(C(=O)O)cn2C(C(C)C)C3)c1 (centres unmarked) [Example 27, 7-Isopropyl-4-(3-methoxyphenyl)-11-oxo-2,6,7,11-tetrahydro-1H-furo[2,3-h]pyrido[2,1-a]isoquinoline-10-carboxylic Acid] | 2.54 | 4.65
20 | CC(C)C1Cc2cc(-c3ccncc3)c3c(c2-c2cc(=O)c(C(=O)O)cn21)CCO3 (centres unmarked) [Example 29, 7-Isopropyl-11-oxo-4-(pyridine-4-yl)-2,6,7,11-tetrahydro-1H-furo[2,3-h]pyrido [2,1-a]isoquinoline-10-carboxylic Acid] | 0.97 | 2.64
21 | CC(C)C1Cc2cc(-c3cncnc3)c3c(c2-c2cc(=O)c(C(=O)O)cn21)CCO3 (centres unmarked) [Example 30, 7-Isopropyl-11-oxo-4-(pyrimidin-5-yl)-2,6,7,11-tetrahydro-1H-furo[2,3-h]pyrido[2,1-a]isoquinoline-10-carboxylic Acid] | 1.95 | 5.3
22 | CC(C)C1Cc2cc(C#CC3CC3)c3c(c2-c2cc(=O)c(C(=O)O)cn21)CCO3 (centres unmarked) [Example 31, 4-(Cyclopropylethynyl)-7-isopropyl-11-oxo-2,6,7,11-tetrahydro-1H-furo [2,3-h]pyrido[2,1-a]isoquinoline-10-carboxylic Acid] | 0.72 | 1.39
23 | O=C(O)c1cn2c(cc1=O)-c1c(cc(OCCC3CC3)c3c1CCO3)CN2c1nccs1 [Example 47, 4-(2-Cyclopropylethoxy)-11-oxo-7-(thiazol-2-yl)-2,6,7,11-tetrahydro-1H-furo [2,3-h]pyrido[2,1-a]phthalazine-10-carboxylic Acid] | 3.31 | –

Source: patent US11447498B2, “Fused tetracyclic compounds and uses thereof in medicine” (SUNSHINE LAKE PHARMA CO., LTD., priority 2018, dated 2022)
